Publication PMC7734798 (ACS Medicinal Chemistry Letters, 2020)

Tested on: CNPase
Test: Oli-Neu differentiation marker CNPase expression (Western blot)
Assay type: cell-based, mouse
Settings: Oli-Neu cells, 5 μM, 72 h
Source text: OPC proliferation and migration to the CNS injury site as well as their differentiation are critical steps toward remyelination in MS. HDAC activity plays a crucial role in OPC proliferation/differentiation; therefore, HDAC modulation is widely considered a promising therapeutic target for MS.[30] […] Therefore, we tested the effect of our compounds on OPC proliferation and differentiation, through cell counting, measure of filaments, and analysis of proliferation/differentiation markers (Figure 7). […]
After 24 hours, the viability was evaluated through the MTT assay. […]
48 hours, for cell counting and measure of filaments, 5 random images for each condition were acquired with an Eclipse TS100 (Nikon) microscope using a 10X objective. Cells number and filament length were measured with Fiji ImageJ2 software. After 48 hours for proliferation and 72 hours of treatment for differentiation analysis, cells were lysed in ice-cold lysis buffer (50 mM Tris-HCl pH 7.4, 1% SDS, 0.05% protease inhibitor cocktail; all from Sigma-Aldrich) and protein content was determined by using the Lowry method. […]

SMILES: CC/C=C\C/C=C\C/C=C\CCCCCCCC(=O)NCCNC(=O)C(CCC)CCC [compound 1]
- expression of CNPase, marker of differentiation: significant increase
